The values that follow come from ChEMBL document CHEMBL2177080, “N-[5-(5-fluoropyridin-3-yl)-1H-pyrazol-3-yl]-4-piperidin-1-ylbutyramide (SEN78702, WYE-308775): a medicinal chemistry effort toward an α7 nicotinic acetylcholine receptor agonist preclinical candidate” (J Med Chem, 2012).

Each structure is given as a SMILES string. The source made the active and inactive calls. The rule behind the calls is not given here.

For series [1], the target named is T1, Neuronal acetylcholine receptor subunit alpha-7 (Rattus norvegicus, UniProt Q05941). Briefly: Agonist activity at rat alpha7 nAchR expressed in rat GH4C1 cells assessed as stimulation of calcium flux by FLIPR.
T1 sequence (Q05941 whole entry): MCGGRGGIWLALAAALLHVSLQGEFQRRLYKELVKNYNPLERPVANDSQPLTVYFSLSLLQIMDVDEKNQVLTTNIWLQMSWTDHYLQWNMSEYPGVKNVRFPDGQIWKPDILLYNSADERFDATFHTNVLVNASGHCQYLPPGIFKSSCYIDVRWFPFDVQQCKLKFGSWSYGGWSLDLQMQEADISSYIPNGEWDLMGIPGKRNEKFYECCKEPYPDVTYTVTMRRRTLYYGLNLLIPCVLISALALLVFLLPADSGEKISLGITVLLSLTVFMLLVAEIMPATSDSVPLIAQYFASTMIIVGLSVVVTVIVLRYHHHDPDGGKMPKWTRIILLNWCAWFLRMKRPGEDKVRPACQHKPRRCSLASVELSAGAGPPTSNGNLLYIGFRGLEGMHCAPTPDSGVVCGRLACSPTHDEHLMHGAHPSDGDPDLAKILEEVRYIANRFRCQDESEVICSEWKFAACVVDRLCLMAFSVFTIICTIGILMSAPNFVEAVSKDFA
The test system of series [2] is Rattus norvegicus. The series can be described thus: Induction of memory enhancement Wistar rat at 1 to 10 mg/kg, po administered 30 mins before acquisition trial pre-treated with 3 mg/kg alpha7 selective antagonist methyllycaconitin by novel object recognition test. Type of series: functional, organism-based.
Series [3] in a line: Cmax in Wistar rat brain 3 mg/kg, po. Also on record: dose 3 mg/kg, route oral. Type of series: ADME, organism-based.
Series [4] concerns the target Neuronal acetylcholine receptor subunit alpha-7 (Homo sapiens, UniProt P36544). The series can be described thus: Agonist activity at human alpha7 nAchR by patch clamp assay. Type of series: functional. (In patch-clamp work, channel activity is measured electrically.)
Series [5] deals with Histamine H3 receptor (Homo sapiens) (UniProt Q9Y5N1). Briefly: Inhibition of histamine H3 receptor at 10 uM.
Histamine H3 receptor (Homo sapiens), sequence (Q9Y5N1 whole entry): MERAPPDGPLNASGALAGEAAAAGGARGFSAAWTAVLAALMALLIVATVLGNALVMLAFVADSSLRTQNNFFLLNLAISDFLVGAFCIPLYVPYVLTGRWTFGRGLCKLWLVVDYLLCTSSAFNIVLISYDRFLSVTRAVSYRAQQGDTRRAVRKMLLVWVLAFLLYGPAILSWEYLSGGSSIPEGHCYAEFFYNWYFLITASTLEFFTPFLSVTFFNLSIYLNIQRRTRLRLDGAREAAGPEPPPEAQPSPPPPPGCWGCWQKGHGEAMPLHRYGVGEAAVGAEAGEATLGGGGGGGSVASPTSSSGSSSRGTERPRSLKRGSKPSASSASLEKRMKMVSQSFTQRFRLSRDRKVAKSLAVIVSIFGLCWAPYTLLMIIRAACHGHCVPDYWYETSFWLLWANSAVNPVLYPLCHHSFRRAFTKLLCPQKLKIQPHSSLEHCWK
For series [6], the target named is T2, Alpha-2C adrenergic receptor (Homo sapiens) (UniProt P18825).
T2 sequence (whole entry): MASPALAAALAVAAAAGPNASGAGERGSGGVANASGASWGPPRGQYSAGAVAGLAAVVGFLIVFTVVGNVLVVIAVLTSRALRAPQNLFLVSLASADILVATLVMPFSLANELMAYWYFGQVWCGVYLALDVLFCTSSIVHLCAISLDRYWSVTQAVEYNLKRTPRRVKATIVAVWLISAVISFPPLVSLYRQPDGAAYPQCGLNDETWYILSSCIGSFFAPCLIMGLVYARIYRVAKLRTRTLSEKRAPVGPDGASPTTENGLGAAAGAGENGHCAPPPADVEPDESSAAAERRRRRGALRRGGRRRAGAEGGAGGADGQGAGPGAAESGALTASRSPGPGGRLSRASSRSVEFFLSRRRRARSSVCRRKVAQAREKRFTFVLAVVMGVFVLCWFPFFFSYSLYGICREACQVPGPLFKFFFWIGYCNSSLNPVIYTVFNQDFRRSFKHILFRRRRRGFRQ
The series can be described thus: Inhibition of alpha2c adrenergic receptor at 10 uM.

For series [7], the target named is T3, Alpha-2A adrenergic receptor (Homo sapiens) (UniProt P08913).
T3 sequence (whole entry): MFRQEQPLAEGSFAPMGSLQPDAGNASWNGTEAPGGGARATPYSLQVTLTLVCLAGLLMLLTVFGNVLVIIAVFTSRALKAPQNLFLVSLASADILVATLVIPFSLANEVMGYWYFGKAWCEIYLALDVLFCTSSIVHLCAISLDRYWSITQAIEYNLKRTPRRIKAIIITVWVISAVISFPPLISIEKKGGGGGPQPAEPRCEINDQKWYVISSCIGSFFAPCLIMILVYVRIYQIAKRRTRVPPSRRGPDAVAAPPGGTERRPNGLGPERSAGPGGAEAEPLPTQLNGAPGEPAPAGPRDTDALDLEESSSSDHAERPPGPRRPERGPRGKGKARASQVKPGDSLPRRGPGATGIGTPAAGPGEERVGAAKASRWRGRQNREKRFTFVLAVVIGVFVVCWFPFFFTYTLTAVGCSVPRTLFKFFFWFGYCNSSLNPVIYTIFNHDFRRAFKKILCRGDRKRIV
Briefly: Inhibition of alpha2a adrenergic receptor at 10 uM.

Series [8] deals with T4, Alpha-2B adrenergic receptor (Homo sapiens) (UniProt P18089).
T4 sequence (whole entry): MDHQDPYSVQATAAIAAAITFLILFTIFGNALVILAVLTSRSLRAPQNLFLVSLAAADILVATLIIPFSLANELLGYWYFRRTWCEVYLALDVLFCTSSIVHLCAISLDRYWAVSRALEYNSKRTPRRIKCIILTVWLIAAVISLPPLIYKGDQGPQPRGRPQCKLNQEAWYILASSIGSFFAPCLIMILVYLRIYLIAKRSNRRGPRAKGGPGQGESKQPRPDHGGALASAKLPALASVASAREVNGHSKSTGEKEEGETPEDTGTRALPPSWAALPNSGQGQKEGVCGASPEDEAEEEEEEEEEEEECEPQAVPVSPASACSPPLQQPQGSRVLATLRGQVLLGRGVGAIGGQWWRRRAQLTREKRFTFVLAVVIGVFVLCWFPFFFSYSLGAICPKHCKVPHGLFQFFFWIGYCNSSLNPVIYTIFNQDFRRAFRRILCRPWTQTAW
The series can be described thus: Inhibition of alpha2b adrenergic receptor at 10 uM.

In series [9] the target is T1, Neuronal acetylcholine receptor subunit alpha-7. The series can be described thus: Displacement of [3H]-epibatidine from rat alpha7 nAchR expressed in rat GH4C1 cell membranes. Set-up: species or system GH4-C1, Membrane. (In a radioligand displacement assay an active substance lowers the binding of a labelled ligand.)
For another series, the system named is Plasma. The series can be described thus: Stability in rat plasma assessed as compound remaining incubated for 3 hrs. In kind it is ADME, cell-free.
The target in series [10] is T1, Neuronal acetylcholine receptor subunit alpha-7. Briefly: Agonist activity at rat alpha7 nAchR expressed in rat GH4C1 cells by patch clamp assay. In kind it is functional, cell-based, GH4-C1.
Series [11] deals with Rattus norvegicus. The series can be described thus: Inhibition of MK801-Induced prepulse inhibition deficits in Long Evans rat at 1 to 10 mg/kg, po administered 60 mins before MK-801 challenge. Type of series: functional, organism-based.
Series [12] in a line: Tmax in Wistar rat 10 mg/kg, po. The settings on record: in vivo. In kind it is ADME, organism-based. Also on record: dose 10 mg/kg, route oral.
Series [13] can be described thus: Toxicity in rat during 7-day tolerability study. Type of series: organism-based. The settings on record: in vivo.
The test system of series [14] is Rattus norvegicus. Briefly: Induction of memory enhancement Wistar rat administered orally 30 mins before acquisition trial by novel object recognition test. In kind it is functional. The settings on record: po, read-out: MED.
A short description of series [15]: Clearance in Wistar rat 2 mg/kg, iv. The settings on record: in vivo. Also on record: dose 2 mg/kg, route intravenous. In kind it is ADME, organism-based.
Series [16] concerns Rattus norvegicus. Briefly: Induction of memory enhancement Wistar rat at 1 to 10 mg/kg, po administered 30 mins before acquisition trial by novel object recognition test. In kind it is functional, organism-based.
Series [17] has as its system Rattus norvegicus. The series can be described thus: Inhibition of MK801-Induced prepulse inhibition deficits in Long Evans rat administered orally 60 mins before MK-801 challenge. Type of series: functional. The settings on record: po, read-out: MED.
The target in series [18] is Neuronal acetylcholine receptor subunit alpha-7 (Rattus norvegicus) (UniProt Q05941). Briefly: Agonist activity at rat alpha7 nAchR expressed in rat GH4C1 cells assessed as stimulation of calcium flux by FLIPR relative to nicotine. The settings on record: GH4-C1. Type of series: functional, cell-based. For orientation: Calcium flux is commonly read through the fluorescence of an indicator in the cells.
Neuronal acetylcholine receptor subunit alpha-7 (Rattus norvegicus), sequence (Q05941 whole entry): as the sequence (Q05941 whole entry) above

Series [19] concerns the target T5, 5-hydroxytryptamine receptor 3A (Homo sapiens, UniProt P46098).
T5 sequence (P46098 whole entry): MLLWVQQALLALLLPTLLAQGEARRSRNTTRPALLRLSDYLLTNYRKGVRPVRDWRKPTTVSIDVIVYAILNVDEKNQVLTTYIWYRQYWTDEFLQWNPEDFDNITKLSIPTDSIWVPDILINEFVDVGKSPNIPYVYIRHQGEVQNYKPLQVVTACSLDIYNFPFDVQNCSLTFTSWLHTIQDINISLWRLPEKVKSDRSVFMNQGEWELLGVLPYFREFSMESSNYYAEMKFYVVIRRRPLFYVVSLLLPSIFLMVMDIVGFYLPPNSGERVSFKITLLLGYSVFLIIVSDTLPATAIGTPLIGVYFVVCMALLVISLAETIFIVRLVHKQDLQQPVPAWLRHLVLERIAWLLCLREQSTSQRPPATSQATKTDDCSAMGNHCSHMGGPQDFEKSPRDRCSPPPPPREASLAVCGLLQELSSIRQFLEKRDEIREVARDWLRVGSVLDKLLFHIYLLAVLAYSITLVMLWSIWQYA
Briefly: (§1) Agonist activity at human 5HT3R expressed in HEK293 cells assessed as stimulation of calcium flux by FLIPR. In kind it is functional, cell-based.

The target in series [20] is Acetylcholine receptor; alpha1/beta1/delta/gamma (Homo sapiens, UniProt P02708+P07510+P11230+Q07001). Briefly: Agonist activity at alpha1beta1gammadelta nAChR nAchR in human TE671 cells assessed as stimulation of calcium flux by FLIPR. In kind it is functional, cell-based, TE-671. The conditions noted are these: for pIC50: TE-671.
Acetylcholine receptor; alpha1/beta1/delta/gamma, sequence (P02708 whole entry): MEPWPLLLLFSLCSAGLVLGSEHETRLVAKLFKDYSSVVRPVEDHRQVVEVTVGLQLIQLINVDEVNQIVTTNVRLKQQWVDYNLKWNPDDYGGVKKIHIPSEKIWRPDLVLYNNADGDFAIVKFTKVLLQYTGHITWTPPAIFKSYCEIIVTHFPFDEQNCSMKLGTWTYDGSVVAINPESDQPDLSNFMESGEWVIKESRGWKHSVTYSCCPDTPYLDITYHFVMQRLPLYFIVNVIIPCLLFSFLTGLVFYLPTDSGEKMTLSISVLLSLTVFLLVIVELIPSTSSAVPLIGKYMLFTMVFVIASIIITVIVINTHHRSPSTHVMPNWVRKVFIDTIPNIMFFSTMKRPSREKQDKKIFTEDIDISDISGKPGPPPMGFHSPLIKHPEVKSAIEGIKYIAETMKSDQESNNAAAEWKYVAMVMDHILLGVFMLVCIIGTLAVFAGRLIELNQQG
Acetylcholine receptor; alpha1/beta1/delta/gamma, sequence (P07510 whole entry): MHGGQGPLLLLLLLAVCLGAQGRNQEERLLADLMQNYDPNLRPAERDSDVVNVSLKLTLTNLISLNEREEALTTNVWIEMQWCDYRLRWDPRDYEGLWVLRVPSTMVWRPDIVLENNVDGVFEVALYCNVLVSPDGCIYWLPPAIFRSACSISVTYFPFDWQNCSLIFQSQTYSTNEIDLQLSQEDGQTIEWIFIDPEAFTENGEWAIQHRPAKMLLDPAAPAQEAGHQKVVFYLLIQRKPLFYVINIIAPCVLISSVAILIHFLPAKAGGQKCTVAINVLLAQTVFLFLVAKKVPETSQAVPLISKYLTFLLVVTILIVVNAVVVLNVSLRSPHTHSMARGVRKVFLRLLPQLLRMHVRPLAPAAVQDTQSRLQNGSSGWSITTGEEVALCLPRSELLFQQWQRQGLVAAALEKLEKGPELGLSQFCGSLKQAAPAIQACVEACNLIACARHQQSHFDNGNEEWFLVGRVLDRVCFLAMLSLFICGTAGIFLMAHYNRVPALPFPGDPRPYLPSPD
Acetylcholine receptor; alpha1/beta1/delta/gamma, sequence (P11230 whole entry): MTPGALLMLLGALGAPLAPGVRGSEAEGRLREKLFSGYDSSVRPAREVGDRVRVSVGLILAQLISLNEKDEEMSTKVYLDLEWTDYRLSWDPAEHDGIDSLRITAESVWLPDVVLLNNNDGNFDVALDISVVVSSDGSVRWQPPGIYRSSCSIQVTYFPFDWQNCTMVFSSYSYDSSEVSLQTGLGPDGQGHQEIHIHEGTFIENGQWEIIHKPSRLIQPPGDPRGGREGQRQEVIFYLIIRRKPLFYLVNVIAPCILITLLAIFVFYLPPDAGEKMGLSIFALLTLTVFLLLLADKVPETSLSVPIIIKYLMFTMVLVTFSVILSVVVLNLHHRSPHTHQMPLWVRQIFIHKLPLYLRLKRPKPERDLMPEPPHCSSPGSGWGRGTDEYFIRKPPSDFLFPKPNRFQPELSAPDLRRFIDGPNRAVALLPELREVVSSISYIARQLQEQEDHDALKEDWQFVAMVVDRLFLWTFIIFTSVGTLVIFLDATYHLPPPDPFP
Acetylcholine receptor; alpha1/beta1/delta/gamma, sequence (Q07001 whole entry): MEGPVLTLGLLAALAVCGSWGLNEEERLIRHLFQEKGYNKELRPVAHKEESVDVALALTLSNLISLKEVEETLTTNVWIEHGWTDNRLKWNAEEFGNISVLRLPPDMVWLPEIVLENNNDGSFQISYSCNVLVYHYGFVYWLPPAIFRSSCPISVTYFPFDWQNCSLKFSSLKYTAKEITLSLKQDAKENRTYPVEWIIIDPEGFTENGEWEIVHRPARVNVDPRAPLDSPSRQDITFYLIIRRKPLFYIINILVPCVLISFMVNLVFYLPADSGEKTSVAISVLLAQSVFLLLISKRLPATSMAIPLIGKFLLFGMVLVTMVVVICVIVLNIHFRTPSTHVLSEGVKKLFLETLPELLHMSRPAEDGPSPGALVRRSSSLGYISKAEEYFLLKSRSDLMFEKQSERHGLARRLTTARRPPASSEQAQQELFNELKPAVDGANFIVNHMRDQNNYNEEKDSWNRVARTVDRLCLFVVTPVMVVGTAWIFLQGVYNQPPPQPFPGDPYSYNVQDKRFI
For series [21], the target named is Neuronal acetylcholine receptor subunit alpha-3 (Homo sapiens, UniProt P32297). Briefly: Agonist activity at alpha3 nAchR in human SH-SY5Y cells assessed as stimulation of calcium flux by FLIPR. Type of series: functional, cell-based.
Neuronal acetylcholine receptor subunit alpha-3, sequence (P32297 whole entry): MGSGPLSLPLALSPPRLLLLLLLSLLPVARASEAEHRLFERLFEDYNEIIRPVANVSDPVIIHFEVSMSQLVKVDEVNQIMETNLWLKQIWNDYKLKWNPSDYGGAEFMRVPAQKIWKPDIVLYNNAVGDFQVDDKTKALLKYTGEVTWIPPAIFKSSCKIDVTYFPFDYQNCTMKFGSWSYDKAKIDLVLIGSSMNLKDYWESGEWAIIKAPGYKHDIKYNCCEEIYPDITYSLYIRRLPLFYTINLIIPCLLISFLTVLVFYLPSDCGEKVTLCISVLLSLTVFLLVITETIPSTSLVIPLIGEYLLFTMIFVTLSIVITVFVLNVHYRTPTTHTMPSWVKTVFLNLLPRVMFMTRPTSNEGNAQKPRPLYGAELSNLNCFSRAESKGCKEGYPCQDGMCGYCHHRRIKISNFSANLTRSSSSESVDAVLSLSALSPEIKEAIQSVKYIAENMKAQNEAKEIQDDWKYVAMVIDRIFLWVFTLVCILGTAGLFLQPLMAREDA
Series [22] has as its target T6, 5-hydroxytryptamine receptor 3A (Homo sapiens) (UniProt P46098).
T6 sequence (whole entry): T5 sequence (P46098 whole entry)
Described as §1. In kind it is functional, cell-based.

The target of series [23] is Voltage-gated inwardly rectifying potassium channel KCNH2 (Homo sapiens, UniProt Q12809). Briefly: Inhibition of human ERG expressed in CHO cells. In kind it is cell-based.
Voltage-gated inwardly rectifying potassium channel KCNH2, sequence (Q12809 whole entry): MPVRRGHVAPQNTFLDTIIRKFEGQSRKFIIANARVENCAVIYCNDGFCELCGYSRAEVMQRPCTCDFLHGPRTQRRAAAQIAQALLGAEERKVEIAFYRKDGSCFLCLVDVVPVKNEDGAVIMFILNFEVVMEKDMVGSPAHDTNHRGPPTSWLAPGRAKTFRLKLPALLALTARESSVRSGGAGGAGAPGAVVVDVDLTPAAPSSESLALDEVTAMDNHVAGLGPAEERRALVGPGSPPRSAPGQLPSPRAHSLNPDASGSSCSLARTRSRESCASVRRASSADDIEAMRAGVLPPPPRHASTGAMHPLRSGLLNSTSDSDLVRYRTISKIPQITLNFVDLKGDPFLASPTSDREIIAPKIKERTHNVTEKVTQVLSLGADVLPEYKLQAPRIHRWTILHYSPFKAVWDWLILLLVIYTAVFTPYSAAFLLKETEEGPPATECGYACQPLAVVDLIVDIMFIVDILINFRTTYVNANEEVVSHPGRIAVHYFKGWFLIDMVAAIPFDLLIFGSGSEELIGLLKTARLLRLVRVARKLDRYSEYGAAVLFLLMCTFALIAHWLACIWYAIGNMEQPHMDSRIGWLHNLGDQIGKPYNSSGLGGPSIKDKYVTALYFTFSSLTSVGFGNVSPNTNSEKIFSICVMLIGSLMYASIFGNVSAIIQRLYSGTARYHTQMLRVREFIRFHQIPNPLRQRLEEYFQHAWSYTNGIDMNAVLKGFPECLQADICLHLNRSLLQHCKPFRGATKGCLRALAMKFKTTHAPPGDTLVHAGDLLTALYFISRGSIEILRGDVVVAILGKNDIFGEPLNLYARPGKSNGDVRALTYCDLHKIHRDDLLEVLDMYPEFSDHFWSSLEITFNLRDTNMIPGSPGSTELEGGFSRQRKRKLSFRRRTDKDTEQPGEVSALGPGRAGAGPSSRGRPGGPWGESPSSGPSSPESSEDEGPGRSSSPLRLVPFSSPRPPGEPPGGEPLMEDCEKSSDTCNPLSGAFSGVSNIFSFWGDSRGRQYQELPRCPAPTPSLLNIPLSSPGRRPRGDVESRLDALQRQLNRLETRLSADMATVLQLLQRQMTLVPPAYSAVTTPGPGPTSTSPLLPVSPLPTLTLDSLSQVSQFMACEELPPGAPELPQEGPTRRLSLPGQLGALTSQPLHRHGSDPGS

As to `COc1ccc(-c2cc(NC(=O)CCCCCN3CCCN(C(C)=O)CC3)n[nH]2)cc1`, in series [1], the EC50 is 1200 nM.

As to `O=C(CCCN1CCCCC1)Nc1cc(-c2cncc(F)c2)n[nH]1`, the result with Rattus norvegicus [2] was inactive. The molecule further displayed a peak concentration (Cmax) in series [3] of 55 ng/g. In addition, the values for the EC50 in series [4], in series [10] and in series [1] were 10000 nM, 10700 nM and 740 nM, respectively. In addition, the inhibition was determined as 62% in series [5], 57% in [6], 73% in series [7] and 64% in series [8]. Besides, the affinity in series [9], expressed as Ki, was 390 nM. In the series on Plasma, the Stability result is listed as “Stable”. Further, the inhibition entry in the series on Rattus norvegicus [11] is “Active”. Besides, in [12], the Tmax worked out at 1 h. Moreover, the MTD at 7 day in [13] is not above 100 mg/kg/day. In addition, the minimal effective dose with Rattus norvegicus [14] and in the series on Rattus norvegicus [17] was 3 mg/kg in each case. For the same molecule, the clearance in [15] is 23 mL/min/kg. Moreover, in the series with Rattus norvegicus [16], the result was Active.

Take `COc1ccc(-c2cc(NC(=O)CCN3CCCN(C(C)=O)CC3)[nH]n2)cc1`: in series [18], the Emax was more than 90%. Also, the concentration giving a half-maximal response (EC50) in series [1] was 8510 nM.

Regarding `COc1ccc(-c2cc(NC(=O)CCCN3CCOCC3)[nH]n2)cc1`, in series [1], the EC50 was 6610 nM.

Regarding `COc1ccc(-c2cc(NC(=O)CCCN3CCCCCC3)[nH]n2)cc1`, the figures for the IC50 in series [19], in series [20] and in series [21] were more than 31600 nM, more than 31600 nM and 7940 nM, respectively. Besides, the EC50 in [1] is 912 nM.

Turning to `CC(C)(C)c1cc(NC(=O)CCCN2CCCCC2)[nH]n1`, the pIC50 entry in series [22], in series [20] and in [21] was “inactive” throughout. The concentration for a half-maximal effect (EC50) in [1] is more than 31600 nM.

Regarding `COc1ccc(-c2cc(NC(=O)CCCN3CCCCC3)[nH]n2)cc1`, the half-inhibitory concentration (IC50) in [19], in series [20] and in series [21] was more than 31600 nM in each case. For the same molecule, the Stability result with Plasma is listed as “Stable”. Further, in [1], the concentration for a half-maximal effect (EC50) was 417 nM.

Take `COc1ccc(-c2cc(NC(=O)CCCN3CCCOCC3)[nH]n2)cc1`: the concentration for a half-maximal effect (EC50) in series [1] was 1170 nM.

The molecule `O=C(CCCN1CCCCC1)Nc1cc(-c2cccc(F)c2)n[nH]1` registered an IC50 in [23] of 1290 nM. Moreover, the pIC50 entry in [20] and in series [21] was “Active” throughout. Besides, in the series with Plasma, the Stability entry was “Stable”. Further, the EC50 in series [1] is 832 nM.

`COc1ccc(-c2cc(NC(=O)CCCCCN3CCCN(C(C)=O)CC3)[nH]n2)cc1`: the Emax in series [18] was more than 90%.

As to `COc1ccc(-c2cc(NC(=O)CCCN3CCCN(C(C)=O)CC3)[nH]n2)cc1`, the Emax in [18] is more than 90%. The Stability entry in the series on Plasma was “Stable”. Besides, the half-maximal effective concentration (EC50) in series [1] was 912 nM.

For the molecule `COc1cccc(-c2cc(NC(=O)CCCN3CCCCC3)[nH]n2)c1`, the pIC50 entry in series [20] and in series [21] was “Active” in each case. Moreover, in the series on Plasma, the Stability result is on record as “Stable”. Also, in series [1], the EC50 was 468 nM.

The term EC50 denotes the concentration that produces a half-maximal response. In general, Cmax refers to the peak of the concentration-time curve. As a reminder, the inhibition is the drop in the measured response relative to a control, in per cent. Usually Ki stands for the dissociation constant of the complex between target and ligand, obtained from inhibition or displacement. For orientation: Tmax means the time from dosing to the highest level. Usually MTD stands for the largest dose that counted as tolerated. A lower MTD goes with poorer tolerability. One may read the clearance as the volume of plasma or blood freed of the substance per unit of time. Usually Emax stands for the maximal effect, on the per cent scale that the assay sets. The term IC50 denotes the concentration at which inhibition is half-maximal.
